In general, melting point refers to the temperature of the solid-liquid transition.

Counter-ions that a name gives are not always drawn.

Take `CN1CCCN(c2cccnn2)CC1` (as salt: fumaric acid salt): the melting point was in the range of 137.8 to 139.3 °C.

The molecule `Clc1ccc(N2CCCNCC2)cn1` returned a melting point of 165 to 167 °C.

As for `COc1cncc(N2CCCNCC2)c1` (as salt: fumaric acid salt) [Compound 1H, 1-(5-Methoxy-3-pyridyl)-homopiperazine], the melting point fell in the range of 161 to 162 °C.

`CN1CCCN(c2cncc(OCC3CC3)c2)CC1` (as salt: fumaric acid salt) [Compound 9E, 1-(5-Cyclopropylmethoxy-3-pyridyl)-4-methyl-homopiperazine]: the melting point lay in the range of 160.4 to 161.9 °C.

Molecule `CC(C)COc1cncc(N2CCCN(C)CC2)c1` (as salt: fumaric acid salt) [Compound 8E, 4-Methyl-1-[5-(2-methyl-propyloxy)-3-pyridyl]-homopiperazine] registered a melting point of 145.7 to 146.9 °C.

For the molecule `COc1cncc(N2CCCNC(C)CC2)c1` (centres unmarked) (as salt: fumaric acid salt) [Compound 11A], the melting point was in the range of 137 to 139 °C.

Take `CN1CCN(c2cnc3ccccc3c2)CC1`: the melting point lay within 116.5 to 117 °C.

In the case of `c1ncc(N2CCCNCC2)cc1OC1CCCC1` (as salt: fumaric acid salt), the melting point lay in the range of 148 to 150 °C.

Molecule `c1ccc2c(N3CCCNCC3)cncc2c1` (as salt: fumaric acid salt) showed a melting point of 160 to 162 °C.

As for `Oc1cccc(N2CCCNCC2)c1` (as salt: fumaric acid salt), the melting point is 165 °C (dec.).

Turning to `COc1ccc(N2CCCNCC2)cn1` (as salt: fumaric acid salt), the melting point was 127 to 128 °C.

`c1cncc(N2CCCNCC2)c1` (as salt: fumaric acid salt) [Compound 1F, 1-(3-Pyridyl)-homopiperazine]: the melting point lay in the range of 172.1 to 172.9 °C.

Turning to `c1ccc(-c2cncc(N3CCCNCC3)c2)cc1` (as salt: fumaric acid salt) [Compound 2H, 1-(5-Phenyl-3-pyridyl)-homopiperazine], the melting point was 185 to 186 °C.

With `Cc1ccc(N2CCCNCC2)nn1` (as salt: fumaric acid salt) [Compound 5K, 1-(6-Methyl-3-pyridazinyl)-homopiperazine], the melting point lay in the range of 102 to 105 °C.

`COc1cnc(Cl)c(N2CCCNCC2)c1` (as salt: fumaric acid salt) yielded a melting point of 117 to 118 °C.

The molecule `CN1CCN(c2cncc(Cl)c2)CC1` (as salt: fumaric acid salt) [Compound 5A, 1-(5-Chloro-3-pyridyl)-4-Methyl-piperazine] returned a melting point of 162 to 163 °C.

Consider `COc1cncc(N2CCNCC2)c1` (as salt: fumaric acid salt) [Compound 3B, 1-(5-Methoxy-3-pyridyl)-piperazine], for which the melting point was 168.5 to 170.5 °C.

Molecule `c1cncc(N2CCNCC2)c1` (as salt: fumaric acid salt) [Compound 1B, 1-(3-Pyridyl)-piperazine] returned a melting point of 161.7 to 164.8 °C.

Consider `C=COc1cncc(N2CCCNCCC2)c1` (as salt: fumaric acid salt), for which the melting point is 142 to 144 °C.

Molecule `Brc1cncc(N2CCCNCC2)c1` (as salt: fumaric acid salt) came in with a melting point of 180.7 to 185.4 °C.

In turn, `COc1cc(N2CCCNCC2)cnc1Cl` (as salt: fumaric acid salt) [Compound 5F, 1-(6-Chloro-5-methoxy-3-pyridyl)-homopiperazine] yielded a melting point of 196 to 197 °C.

For `CCOc1cncc(N2CCCNCC2)c1` (as salt: fumaric acid salt) [Compound 3H, 1-(5-Ethoxy-3-pyridyl)-homopiperazine], the melting point fell in the range of 157.5 to 159 °C.

Molecule `c1ccc(CN2CCCN(c3cccnc3)CC2)cc1` (as salt: fumaric acid salt) returned a melting point of 148.4 to 149 °C.

On to `Clc1cncc(N2CCNCC2)c1` (as salt: fumaric acid salt) [Compound 4B, 1-(5-Chloro-3-pyridyl)-piperazine], for which the melting point was in the range of 195 to 196 °C.

In turn, `CN1CCCN(c2cnc3ccccc3c2)CC1` (as salt: fumaric acid salt) [Compound 2E, 4-Methyl-1-(3-quinolinyl)-homopiperazine] returned a melting point of 170 to 171 °C.

`CCCCOc1cncc(N2CCCN(C)CC2)c1` (as salt: fumaric acid salt) [Compound 6E, 1-(5-Butoxy-3-pyridyl)-4-methyl-homopiperazine] returned a melting point of 127 to 129 °C.

Molecule `c1ccc2c(c1)ccn2-c1cncc(N2CCCNCC2)c1` (as salt: fumaric acid salt) displayed a melting point of 193 to 195 °C.

Regarding `Clc1ccc(N2CCCCNCC2)nn1` (as salt: fumaric acid salt) [Compound 8B, 1-(6-Chloro-3-pyridazinyl)-1,4-diazacyclooctane], the melting point fell in the range of 177 to 179 °C.

On to `CCCCOc1cncc(N2CCCNCC2)c1` (as salt: fumaric acid salt), for which the melting point lay in the range of 150 to 151 °C.

In the case of `Cc1ccc(N2CCCN(C)CC2)nn1` (as salt: fumaric acid salt), the melting point was 152 to 153 °C.

Turning to `C=COc1cncc(N2CCCNCC2)c1` (as salt: fumaric acid salt), the melting point was 143 to 144 °C.

The molecule `Cc1cnc(C)c(N2CCCNCC2)n1` (as salt: fumaric acid salt) displayed a melting point of 149 to 151 °C.

`CC(C)CCOc1cncc(N2CCCNCC2)c1` (as salt: fumaric acid salt) came in with a melting point of 139.9 to 142 °C.

With `Clc1cncc(N2CCCNCC2)c1` (as salt: fumaric acid salt), the melting point fell in the range of 144.4 to 146.6 °C.

The molecule `O=[N+]([O-])c1cccc(N2CCCNCC2)c1` (as salt: fumaric acid salt) showed a melting point of 163.1 to 164.4 °C.

Molecule `CCOc1cncc(N2CCN(C)CC2)c1` (as salt: fumaric acid salt) [Compound 7A, 1-(5-Ethoxy-3-pyridyl)-4-methyl-piperazine] registered a melting point of 162.2 to 163.7 °C.

With `CCOCCOc1cncc(N2CCCNCC2)c1` (as salt: fumaric acid salt), the melting point fell in the range of 139.3 to 140.4 °C.

Take `c1ccc2ncc(N3CCCNCC3)cc2c1` (as salt: fumaric acid salt) [Compound 2F, 1-(3-Quinolinyl)-homopiperazine]: the melting point lay in the range of 181 to 182 °C.

The molecule `CN1CCCN(c2cncc(OCC3CCCCC3)c2)CC1` (as salt: fumaric acid salt) [Compound 14E, 1-(5-Cyclohexylmethoxy-3-pyridyl)-4-methyl-homopiperazine] yielded a melting point of 160.4 to 162 °C.

In turn, `Clc1nc2ccccc2nc1N1CCCNCC1` (as salt: fumaric acid salt) showed a melting point of 136.2 to 139.9 °C.

Molecule `CC(C)CCOc1cncc(N2CCCN(C)CC2)c1` (as salt: fumaric acid salt) [Compound 12E, 4-Methyl-1-[5-(3-methyl-butoxy)-3-pyridyl]-homopiperazine] returned a melting point of 130.4 to 131.9 °C.

The molecule `COc1cncc(N2CCCN(C)CC2)c1` (as salt: fumaric acid salt) [Compound 3E, 1-(5-Methoxy-3-pyridyl)-4-methyl-homopiperazine] had a melting point of 145 to 147 °C.

Molecule `c1ncc(N2CCCNCC2)cc1OCC1CC1` (as salt: fumaric acid salt) [Compound 9H, 1-(5-Cyclopropylmethoxy-3-pyridyl)-homopiperazine] displayed a melting point of 154 to 156 °C.

`CN1CCN(c2cccnc2)CC1` (as salt: fumaric acid salt) [Compound 1A, 4-Methyl-1-(3-pyridyl)-piperazine] yielded a melting point of 144.5 to 145.9 °C.

The molecule `CCOc1cncc(N2CCN(CC)CC2)c1` (as salt: fumaric acid salt) [Compound 9D, 1-(5-Ethoxy-3-pyridyl)-4-ethyl-piperazine] displayed a melting point of 144.8 to 145.9 °C.

On to `COc1cncc(N2CCCNCCC2)c1` (as salt: fumaric acid salt) [Compound 6B, 1-(5-Methoxy-3-pyridyl)-1,5-diazacyclooctane], for which the melting point is 158 to 160 °C.

The molecule `CCCOc1cncc(N2CCCNCC2)c1` (as salt: fumaric acid salt) [Compound 10H, 1-(5-Propyloxy-3-pyridyl)-homopiperazine] returned a melting point of 156.2 to 157.8 °C.

Turning to `COc1cccc(N2CCCNCC2)c1` (as salt: fumaric acid salt), the melting point lay in the range of 164.1 to 165.7 °C.

`Clc1ccc(N2CCCNCCC2)nn1` (as salt: fumaric acid salt) [Compound 7B, 1-(6-Chloro-3-pyridazinyl)-1,5-diazacyclooctane]: the melting point was 176 to 178 °C.

Turning to `c1cc(N2CCCC2)ncc1N1CCCNCC1` (as salt: fumaric acid salt), the melting point is 148.6 to 150.5 °C.

The molecule `c1ncc(N2CCCNCC2)cc1OCC1CCCCC1` (as salt: fumaric acid salt) registered a melting point of 163.3 to 164.5 °C.

The molecule `CCCCCOc1cncc(N2CCCN(C)CC2)c1` (as salt: fumaric acid salt) [Compound 15E, 4-Methyl-1-(5-pentyloxy-3-pyridyl)-homopiperazine] displayed a melting point of 129 to 130.8 °C.

Turning to `C/C=C/Oc1cncc(N2CCCN(C)CC2)c1` (as salt: fumaric acid salt) [Compound 17E, trans-4-Methyl-1-(5-propyl-1-en-oxy-3-pyridyl)-homopiperazine], the melting point was in the range of 126 to 128 °C.

Regarding `CCCCCCOc1cncc(N2CCCN(C)CC2)c1` (as salt: fumaric acid salt) [Compound 11E, 1-(5-Hexyloxy-3-pyridyl)-4-methyl-homopiperazine], the melting point was in the range of 128.7 to 130.8 °C.

`CCOc1cncc(N2CCCN(C)CC2)c1` (as salt: fumaric acid salt) [Compound 4E, 1-(5-Ethoxy-3-pyridyl)-4-methyl-homopiperazine]: the melting point lay in the range of 150 to 152 °C.

`CN1CCCN(c2cncc(-c3ccccc3)c2)CC1` (as salt: fumaric acid salt) [Compound 5E, 4-Methyl-1-(5-phenyl-3-pyridyl)-homopiperazine] displayed a melting point of 161 to 162 °C.

Values taken from US6897219B2, “Heteroaryl diazacycloalkanes, their preparation and use” (priority 1997, dated 2005).
